Our source for the melting point values is patent publication US7645878B2, “Process for preparing quinazoline Rho-kinase inhibitors and intermediates thereof” (Bayer Healthcare LLC, priority 2002, dated 2010).

Broadly, the melting point is the temperature, or range, at which the solid turns liquid. On to `c1ccc2c(Nc3ccc4[nH]ncc4c3)nc(-c3ccc4c(c3)CCO4)nc2c1` [Example 9, 2-(2,3-dihydro-1-benzofuran-5-yl)-N-(1H-indazol-5-yl)-4-quinazolinamine], for which the melting point was in the range of 267 to 272 °C.
